Reference: ChEMBL document CHEMBL3885861, “Open TG-GATES”

Species on record: Rattus norvegicus
Experiment: Open TG-GATES - Regimen: Single
Type: toxicity, organism-based, Sprague-Dawley
Set-up: regimen Single, gender Male, age 6 weeks
Conditions: in vivo, po, route gavage; for APTT / Bas / Eos / Fbg / Hb / Ht / Lym / MCH / MCHC / MCV / Mono / Neu / PT / Plat / RBC / Ret / WBC: tissue Blood; for KIDNEY_L / KIDNEY_R / KIDNEY_TOTAL: tissue Kidney; for LIVER: tissue Liver; for A/G / ALP / ALT / AST / BUN / CRE / Ca / Cl / DBIL / GLC / IP / K / LDH / Na / PL / RALB / TBIL / TC / TG / TP / gamma-GTP: tissue Plasma
[1] = 0 mg/kg, 3 h, dose level Control
[2] = 0 mg/kg, 6 h, dose level Control
[3] = 0 mg/kg, 9 h, dose level Control
[4] = 0 mg/kg, 24 h, dose level Control
[5] = 100 mg/kg, 24 h, dose level Low

## CC(C)(S)[C@@H](N)C(=O)O [PENICILLAMINE]
[1]
  TERMINAL_BW: 202 g
  APTT: 15 s
  Bas: 0%
  Eos: 1%
  Fbg: 302 mg/dL
  Hb: 13.8 g/dL
  Ht: 42.5%
  Lym: 79.4%
  MCH: 21.6 pg
  MCHC: 32.5%
  MCV: 66.4 fL
  Mono: 2.8%
  Neu: 15.8%
  PT: 14.4 s
  Plat: 123.9 x10_4/uL
  RBC: 639.6 x10_4/ul
  Ret: 9.1%
  WBC: 90 x10_2/uL
  KIDNEY_L: 0.9 g
  KIDNEY_R: 0.9 g
  KIDNEY_TOTAL: 1.7 g
  LIVER: 9 g
  A/G: 0.9
  ALP: 1505 IU/L
  ALT: 42.2 IU/L
  AST: 75.2 IU/L
  BUN: 10 mg/dL
  CRE: 0.2 mg/dL
  Ca: 11.1 mg/dL
  Cl: 106.2 meq/L
  DBIL: 0.014 mg/dL
  GLC: 178.8 mg/dL
  IP: 8.4 mg/dL
  K: 4.4 meq/L
  LDH: 74.6 IU/L
  Na: 141.8 meq/L
  PL: 137.4 mg/dL
  RALB: 2.6 g/dL
  TBIL: 0.032 mg/dL
  TC: 71.4 mg/dL
  TG: 72.6 mg/dL
  TP: 5.3 g/dL
  gamma-GTP: 1.2 IU/L
[2]
  TERMINAL_BW: 201.2 g
  APTT: 16.2 s
  Bas: 0%
  Eos: 1%
  Fbg: 301.2 mg/dL
  Hb: 13.3 g/dL
  Ht: 41.1%
  Lym: 79.2%
  MCH: 20.6 pg
  MCHC: 32.4%
  MCV: 63.7 fL
  Mono: 2.6%
  Neu: 16.2%
  PT: 14.3 s
  Plat: 130.7 x10_4/uL
  RBC: 646.2 x10_4/ul
  Ret: 8.8%
  WBC: 87.2 x10_2/uL
  KIDNEY_L: 0.9 g
  KIDNEY_R: 0.9 g
  KIDNEY_TOTAL: 1.7 g
  LIVER: 8.5 g
  A/G: 0.9
  ALP: 1217 IU/L
  ALT: 34.4 IU/L
  AST: 70.6 IU/L
  BUN: 9.6 mg/dL
  CRE: 0.2 mg/dL
  Ca: 11 mg/dL
  Cl: 106 meq/L
  DBIL: 0.008 mg/dL
  GLC: 175.8 mg/dL
  IP: 8.9 mg/dL
  K: 4.3 meq/L
  LDH: 76 IU/L
  Na: 142.8 meq/L
  PL: 135 mg/dL
  RALB: 2.5 g/dL
  TBIL: 0.038 mg/dL
  TC: 75.8 mg/dL
  TG: 52.4 mg/dL
  TP: 5.3 g/dL
  gamma-GTP: 1 IU/L
[3]
  TERMINAL_BW: 199.9 g
  APTT: 16.9 s
  Bas: 0%
  Eos: 0.6%
  Fbg: 300 mg/dL
  Hb: 13.5 g/dL
  Ht: 41.9%
  Lym: 80%
  MCH: 21.1 pg
  MCHC: 32.3%
  MCV: 65.3 fL
  Mono: 2.6%
  Neu: 16.2%
  PT: 14.5 s
  Plat: 126.8 x10_4/uL
  RBC: 641.4 x10_4/ul
  Ret: 9.1%
  WBC: 92.7 x10_2/uL
  KIDNEY_L: 0.9 g
  KIDNEY_R: 0.9 g
  KIDNEY_TOTAL: 1.8 g
  LIVER: 8.1 g
  A/G: 0.9
  ALP: 1372.8 IU/L
  ALT: 40.6 IU/L
  AST: 72 IU/L
  BUN: 8.6 mg/dL
  CRE: 0.1 mg/dL
  Ca: 10.7 mg/dL
  Cl: 106.4 meq/L
  DBIL: 0.006 mg/dL
  GLC: 187.4 mg/dL
  IP: 9.8 mg/dL
  K: 4.2 meq/L
  LDH: 68.4 IU/L
  Na: 143.6 meq/L
  PL: 144 mg/dL
  RALB: 2.6 g/dL
  TBIL: 0.034 mg/dL
  TC: 82 mg/dL
  TG: 55 mg/dL
  TP: 5.4 g/dL
  gamma-GTP: 1.2 IU/L
[4]
  TERMINAL_BW: 214.6 g
  APTT: 16.2 s
  Bas: 0%
  Eos: 1%
  Fbg: 317.2 mg/dL
  Hb: 13.3 g/dL
  Ht: 40.9%
  Lym: 76.8%
  MCH: 21.3 pg
  MCHC: 32.6%
  MCV: 65.2 fL
  Mono: 3.6%
  Neu: 17.6%
  PT: 13.9 s
  Plat: 125.8 x10_4/uL
  RBC: 626.4 x10_4/ul
  Ret: 8.2%
  WBC: 92.6 x10_2/uL
  KIDNEY_L: 0.9 g
  KIDNEY_R: 0.9 g
  KIDNEY_TOTAL: 1.8 g
  LIVER: 9.5 g
  A/G: 0.9
  ALP: 1418.8 IU/L
  ALT: 43 IU/L
  AST: 74.6 IU/L
  BUN: 13.2 mg/dL
  CRE: 0.2 mg/dL
  Ca: 11.1 mg/dL
  Cl: 105.8 meq/L
  DBIL: 0.01 mg/dL
  GLC: 174.8 mg/dL
  IP: 7.2 mg/dL
  K: 4 meq/L
  LDH: 80 IU/L
  Na: 143.4 meq/L
  PL: 160.4 mg/dL
  RALB: 2.6 g/dL
  TBIL: 0.026 mg/dL
  TC: 83 mg/dL
  TG: 115.6 mg/dL
  TP: 5.5 g/dL
  gamma-GTP: 1 IU/L
100 mg/kg, 3 h, dose level Low
  TERMINAL_BW: 201.7 g
  APTT: 15.4 s
  Bas: 0%
  Eos: 1%
  Fbg: 283 mg/dL
  Hb: 13.5 g/dL
  Ht: 41.8%
  Lym: 79.2%
  MCH: 20.5 pg
  MCHC: 32.4%
  MCV: 63.4 fL
  Mono: 2.8%
  Neu: 16.4%
  PT: 15 s
  Plat: 118.1 x10_4/uL
  RBC: 659.6 x10_4/ul
  Ret: 9.3%
  WBC: 78.7 x10_2/uL
  KIDNEY_L: 0.9 g
  KIDNEY_R: 0.9 g
  KIDNEY_TOTAL: 1.8 g
  LIVER: 8.7 g
  A/G: 1
  ALP: 1342 IU/L
  ALT: 42.6 IU/L
  AST: 74.4 IU/L
  BUN: 9.6 mg/dL
  CRE: 0.2 mg/dL
  Ca: 10.8 mg/dL
  Cl: 106.6 meq/L
  DBIL: 0.012 mg/dL
  GLC: 186.8 mg/dL
  IP: 8.2 mg/dL
  K: 4.3 meq/L
  LDH: 61.2 IU/L
  Na: 142.2 meq/L
  PL: 139 mg/dL
  RALB: 2.6 g/dL
  TBIL: 0.036 mg/dL
  TC: 74.4 mg/dL
  TG: 63.6 mg/dL
  TP: 5.3 g/dL
  gamma-GTP: 1 IU/L
100 mg/kg, 6 h, dose level Low
  TERMINAL_BW: 200.9 g
  APTT: 18.6 s
  Bas: 0%
  Eos: 1%
  Fbg: 310 mg/dL
  Hb: 13.4 g/dL
  Ht: 41.5%
  Lym: 74.8%
  MCH: 20.6 pg
  MCHC: 32.2%
  MCV: 63.9 fL
  Mono: 3%
  Neu: 20.6%
  PT: 14.7 s
  Plat: 117.7 x10_4/uL
  RBC: 651 x10_4/ul
  Ret: 9.1%
  WBC: 91.5 x10_2/uL
  KIDNEY_L: 0.9 g
  KIDNEY_R: 0.9 g
  KIDNEY_TOTAL: 1.8 g
  LIVER: 8.2 g
  A/G: 0.9
  ALP: 1252 IU/L
  ALT: 38 IU/L
  AST: 76 IU/L
  BUN: 7.2 mg/dL
  CRE: 0.2 mg/dL
  Ca: 10.7 mg/dL
  Cl: 106.6 meq/L
  DBIL: 0.01 mg/dL
  GLC: 175.4 mg/dL
  IP: 8.7 mg/dL
  K: 4 meq/L
  LDH: 63.8 IU/L
  Na: 143 meq/L
  PL: 138.2 mg/dL
  RALB: 2.5 g/dL
  TBIL: 0.038 mg/dL
  TC: 78.8 mg/dL
  TG: 44.6 mg/dL
  TP: 5.2 g/dL
  gamma-GTP: 1.2 IU/L
100 mg/kg, 9 h, dose level Low
  TERMINAL_BW: 200 g
  APTT: 15.2 s
  Bas: 0%
  Eos: 0.8%
  Fbg: 315.8 mg/dL
  Hb: 13.3 g/dL
  Ht: 41.2%
  Lym: 78%
  MCH: 20.5 pg
  MCHC: 32.3%
  MCV: 63.6 fL
  Mono: 2.2%
  Neu: 18.4%
  PT: 14.3 s
  Plat: 124 x10_4/uL
  RBC: 647.4 x10_4/ul
  Ret: 9%
  WBC: 74.3 x10_2/uL
  KIDNEY_L: 0.9 g
  KIDNEY_R: 0.9 g
  KIDNEY_TOTAL: 1.8 g
  LIVER: 7.9 g
  A/G: 0.9
  ALP: 1373.8 IU/L
  ALT: 40 IU/L
  AST: 68.6 IU/L
  BUN: 9.6 mg/dL
  CRE: 0.2 mg/dL
  Ca: 10.7 mg/dL
  Cl: 106.4 meq/L
  DBIL: 0.008 mg/dL
  GLC: 166.2 mg/dL
  IP: 10 mg/dL
  K: 4 meq/L
  LDH: 54.4 IU/L
  Na: 143.2 meq/L
  PL: 137 mg/dL
  RALB: 2.6 g/dL
  TBIL: 0.034 mg/dL
  TC: 79.6 mg/dL
  TG: 45 mg/dL
  TP: 5.4 g/dL
  gamma-GTP: 1.2 IU/L
[5]
  TERMINAL_BW: 219.1 g
  APTT: 16.6 s
  Bas: 0%
  Eos: 0.8%
  Fbg: 272.4 mg/dL
  Hb: 13 g/dL
  Ht: 40%
  Lym: 78.6%
  MCH: 20.8 pg
  MCHC: 32.4%
  MCV: 64.2 fL
  Mono: 2.8%
  Neu: 16.8%
  PT: 14.2 s
  Plat: 125.3 x10_4/uL
  RBC: 623.4 x10_4/ul
  Ret: 8%
  WBC: 90.1 x10_2/uL
  KIDNEY_L: 0.9 g
  KIDNEY_R: 0.9 g
  KIDNEY_TOTAL: 1.9 g
  LIVER: 10.4 g
  A/G: 0.9
  ALP: 1649.2 IU/L
  ALT: 45 IU/L
  AST: 70.4 IU/L
  BUN: 13.4 mg/dL
  CRE: 0.2 mg/dL
  Ca: 11 mg/dL
  Cl: 104.4 meq/L
  DBIL: 0.012 mg/dL
  GLC: 178.6 mg/dL
  IP: 7.9 mg/dL
  K: 4 meq/L
  LDH: 81.6 IU/L
  Na: 143.2 meq/L
  PL: 155.2 mg/dL
  RALB: 2.7 g/dL
  TBIL: 0.026 mg/dL
  TC: 81.6 mg/dL
  TG: 93.6 mg/dL
  TP: 5.5 g/dL
  gamma-GTP: 1 IU/L
